Series [1] is described as follows: Cytotoxicity against cystinotic human fibroblasts at 50 uM after 72 hrs by Alamar blue assay. It counts as cell-based. The conditions noted are these: fibroblast. In general terms: Resazurin is reduced to fluorescent resorufin, in cell work by metabolically active cells.
The subject of the next series is Fibroblast. As to the kind of experiment: Reduction of intralysosomal cystine in cystinotic human fibroblasts at 50 uM after 24 hrs by Bradford method relative to control. The format is functional, cell-based.

Among the data in ChEMBL document CHEMBL1811882, “Synthesis and in vitro evaluation of novel pro-drugs for the treatment of nephropathic cystinosis” (Bioorg Med Chem, 2011) are Activity values, retold here.

The source made the active and inactive calls. The calls are words filed in the database; no cut-off is given here.

Take `Cl.Cl.N[C@@H](Cc1ccccc1)C(=O)NCCSSCCNC(=O)CCCC(=O)NCCSSCCNC(=O)CCCC(=O)NCCSSCCNC(=O)[C@@H](N)Cc1ccccc1`: the Activity result in series [1] was “Non-toxic”. Further, the outcome with Fibroblast was Active.

Turning to `Cl.Cl.NCCSSCCNC(=O)CCCC(=O)NCCSSCCNC(=O)CCCC(=O)NCCSSCCN`, the Activity result in series [1] was “Non-toxic”. In the series with Fibroblast, the result was Active.

For `Cl.Cl.NCCSSCCNC(=O)CCC(=O)NCCSSCCNC(=O)CCC(=O)NCCSSCCN`, the Activity entry in series [1] is “Non-toxic”. Besides, the result in the series with Fibroblast was Active.

With `Cl.Cl.N[C@@H](Cc1ccccc1)C(=O)NCCSSCCNC(=O)CCC(=O)NCCSSCCNC(=O)CCC(=O)NCCSSCCNC(=O)[C@@H](N)Cc1ccccc1`, in series [1], the Activity entry was “Non-toxic”. In the series on Fibroblast, the result was Active.

Take `NCCS` [CYSTEAMINE]: in series [1], the Activity result is listed as “Non-toxic”. The outcome in the series with Fibroblast was Active.
